Measurements published in patent publication US20100305173A1, “HYDROXYETHYLAMINO SULFONAMIDE DERIVATIVES” (CoNCERT Pharmaceuticals, Inc., priority 2009, published 2010).
Like-named read-outs stand apart in the source and are kept apart here.

Test: Metabolic stability of test compounds in human liver microsomes
Type: in vitro ADME
Settings: for half-life: human, liver microsomes, pH 7.4, half-life in human liver microsomes
Experimental: Determination of Metabolic Stability of Test Compounds in
Human Liver Microsomes. Human liver microsomes (20 mg/mL) were obtained from Xenotech, LLC (Lenexa, Kans.). β-nicotinamide adenine dinucleotide phosphate, reduced form (NADPH), magnesium chloride (MgCl2), and dimethyl sulfoxide (DMSO) were purchased from Sigma-Aldrich.
7.5 mM stock solutions of test compounds were prepared in DMSO. […] The diluted microsomes (375 μL) were added to wells of a 96-well deep-well polypropylene plate in triplicate. […] Reactions were initiated by addition of 125 μL of pre-warmed NADPH solution. The final reaction volume was 0.5 mL and contained 0.5 mg/mL human liver microsomes, 0.25-1.0 μM test compound, and 2 mM NADPH in 0.1 M potassium phosphate buffer, pH 7.4, and 3 mM MgCl2. The reaction mixtures were incubated at 37° C., and 50 μL aliquots were removed at 0, 5, 10, 20, and 30 minutes and added to shallow-well 96-well plates which contained 50 μL of ice-cold ACN with internal standard to stop the reactions. The plates were stored at 4° C. for 20 minutes after which 100 μL of water was added to the wells of the plate before centrifugation to pellet precipitated proteins. Supernatants were transferred to another 96-well plate and analyzed for amounts of parent compound remaining by LC-MS/MS using an Applied Bio-systems API 4000 mass spectrometer. 7-ethoxycoumarin (1 μM) was used as the positive control substrate.
Data analysis: The in vitro half-lives (tii2s) for test compounds were calculated from the slopes of the linear regression of % parent remaining (ln) vs incubation time relationship using the following formula: […]
Data analysis was performed using Microsoft Excel Software.
FIG. 1, FIG. 2, FIG. 3, Table 2, Table 3 and Table 4 show the results of this experiment.

[1] = Table 4, Expt I, read-out: T1/2 (min) Expt I
[2] = Table 4, Expt J, read-out: T1/2 (min) Expt J
[3] = Table 4, calculated average of Expt E-J, read-out: T1/2 (min) Average ± SD
[4] = Table 4, Expt H, read-out: T1/2 (min) Expt H
[5] = Table 2, Exp A, read-out: T1/2 (min) Exp A
[6] = Table 2, Exp B, read-out: T1/2 (min) Exp B
[7] = Table 2, calculated average of Exp A and B, read-out: T1/2 (min) Average
[8] = Table 4, Expt G, read-out: T1/2 (min) Expt G
[9] = Table 3, Exp C, read-out: T1/2 (min) Exp C
[10] = Table 3, Exp D, read-out: T1/2 (min) Exp D
[11] = Table 3, calculated average of Exp C and D, read-out: T1/2 (min) Average

Structure (SMILES)	half-life [1]	half-life [2]	half-life [3]	half-life [5]	half-life [6]	half-life [7]	half-life [9]	half-life [10]	half-life [11]	also measured
Cc1nc(COc2ccc(C[C@H](NC(=O)O[C@H]3CO[C@H]4OCC[C@H]43)[C@H](O)CN(CC(C)C)S(=O)(=O)c3ccc4c(c3)OCO4)cc2)cs1 [Brecanavir, N-[3-[N-(1,3-Benzodioxol-5-ylsulfonyl)-N-isobutylamino]-2(R)-hydroxy-1-(S)-[4-(2-methylthiazol-4-ylmethoxy)benzyl]propyl]carbamic acid (3R,3aS,6aR)-perhydrofuro[2,3-b]furan-3-yl ester, reference compound]	2 min	2 min	2 min							
[2H]C([2H])([2H])C([2H])(C([2H])([2H])[2H])C([2H])([2H])N(C[C@@H](O)[C@H](Cc1ccccc1)NC(=O)O[C@]1([2H])[C@@H]2CCO[C@@H]2OC1([2H])[2H])S(=O)(=O)c1ccc(NC(=O)C2CC2)cc1 [Compound 233, (3R,3aS,6aR)-hexahydrofuro[2,3-b]furan-3-yl-((2S,3R)-4-(4-(cyclopropanecarbox-amido)-N-isobutylphenylsulfonamido)-3-hydroxy-1-phenylbutan-2-yl)carbamate-d12]				4.7 min	2.4 min	3.5 min				
[2H]C([2H])([2H])C([2H])(C([2H])([2H])[2H])C([2H])([2H])N(C[C@@H](O)[C@H](Cc1ccccc1)NC(=O)O[C@]1([2H])[C@@H]2CCO[C@@H]2OC1([2H])[2H])S(=O)(=O)c1ccc2occ(CNC(=O)OCC)c2c1 [Compound 235, ((5-(N-((2R,3S)-3-(((((3R,3aS,6aR)-hexahydrofuro[2,3-b]furan-3-yl)oxy)carbonyl)amino)-2-hydroxy-4-phenylbutyl)-isobutylsulfamoyl)benzofuran-3-yl)methyl)carbamic acid ethyl ester-d12]				2.4 min	1.5 min	2 min				
[2H]C([2H])(N(C[C@@H](O)[C@H](Cc1ccccc1)NC(=O)O[C@]1([2H])[C@@H]2CCO[C@@H]2OC1([2H])[2H])S(=O)(=O)c1ccc(NC(C)=O)cc1)C1([2H])C([2H])([2H])C([2H])([2H])C([2H])([2H])C1([2H])[2H] [Compound 236, (3R,3aS,6aR)-hexahydrofuro[2,3-b]furan-3-yl-((2S,3R)-4-(4-acetamido-N-(cyclopen-tylmethyl)phenylsulfonamido)-3-hydroxy-1-phenylbutan-2-yl)carbamate-d14]				7.1 min	3.6 min	5.4 min				
CCOC(=O)NCc1coc2ccc(S(=O)(=O)N(CC(C)C)C[C@@H](O)[C@H](Cc3ccccc3)NC(=O)O[C@H]3CO[C@H]4OCC[C@H]43)cc12 [Compound 301, reference compound]				1.9 min	1.5 min	1.7 min				
CC(C)CN(C[C@@H](O)[C@H](Cc1ccccc1)NC(=O)O[C@H]1CO[C@H]2OCC[C@H]21)S(=O)(=O)c1ccc2ncsc2c1 [Compound 302, reference compound]	5.6 min	6.4 min	6 min				8.2 min	8.7 min	8.5 min	
CC(C)CN(C[C@@H](O)[C@H](Cc1ccccc1)NC(=O)O[C@H]1CO[C@H]2OCC[C@H]21)S(=O)(=O)c1ccc2occc2c1 [Compound 303, reference compound]	21.1 min	19.9 min	20.5 min							

The next lines start with results.

half-life [1]	half-life [2]	half-life [3]	half-life [5]	half-life [6]	half-life [7]	half-life [9]	half-life [10]	half-life [11]	Structure (SMILES)	also measured
21.5 min	46.7 min	23 ± 5.7 min							[2H]C([2H])([2H])C([2H])(C([2H])([2H])[2H])C([2H])([2H])N(C[C@@H](O)[C@H](Cc1ccccc1)NC(=O)O[C@]1([2H])[C@@H]2CCO[C@@H]2OC1([2H])[2H])S(=O)(=O)c1ccc2occc2c1 [Compound 106, (3R,3aS,6aR)-hexahydrofuro[2,3-b]furan-3-yl-((2S,3R)-3-hydroxy-4-(N-isobutylbenzofuran-5-sulfonamido)-1-phenylbutan-2-yl)carbamate-d12]	increase in stability over darunavir and brecanavir (human liver microsomes, versus darunavir and brecanavir, in words): very significant increase in stability; half-life (Table 4, Expt E, read-out: T1/2 (min) Expt E): 31.2 min; half-life (Table 4, Expt F, read-out: T1/2 (min) Expt F): 21.2 min; half-life [4]: 18.1 min
7.2 min	7.1 min	6.3 ± 1 min	9 min	4.3 min	6.6 min				[2H]C([2H])([2H])C([2H])(C([2H])([2H])[2H])C([2H])([2H])N(C[C@@H](O)[C@H](Cc1ccccc1)NC(=O)O[C@]1([2H])[C@@H]2CCO[C@@H]2OC1([2H])[2H])S(=O)(=O)c1ccc(NC(C)=O)cc1 [Compound 227, (3R,3aS,6aR)-hexahydrofuro[2,3-b]furan-3-yl-((2S,3R)-4-(4-acetamido-N-isobutylphenylsulfonamido)-3-hydroxy-1-phenylbutan-2-yl) carbamate-d12]	half-life [8]: 5.7 min; half-life [4]: 5.3 min
6 min	5.8 min	6.2 ± 0.4 min				8.7 min	8.6 min	8.6 min	[2H]C([2H])([2H])C([2H])(C([2H])([2H])[2H])C([2H])([2H])N(C[C@@H](O)[C@H](Cc1ccccc1)NC(=O)O[C@]1([2H])[C@@H]2CCO[C@@H]2OC1([2H])[2H])S(=O)(=O)c1ccc2ncsc2c1 [Compound 229, (3R,3aS,6aR)-hexahydrofuro[2,3-b]furan-3-yl-((2S,3R)-3-hydroxy-4-(N-isobutylbenzo[d]thiazole-6-sulfonamido)-1-phenylbutan-2-yl)carbamate-d12]	half-life [8]: 6.4 min; half-life [4]: 6.7 min
						11.7 min	15.1 min	13.4 min	[2H]C([2H])([2H])C([2H])(C([2H])([2H])[2H])C([2H])([2H])N(C[C@@H](O)[C@H](Cc1ccccc1)NC(=O)O[C@@]1([2H])C([2H])([2H])O[C@@]2([2H])OC([2H])([2H])C([2H])([2H])[C@]21[2H])S(=O)(=O)c1ccc2ncsc2c1 [Compound 230, (3R,3aS,6aR)-hexahydrofuro[2,3-b]furan-3-yl-((2S,3R)-3-hydroxy-4-(N-isobutylbenzo[d]thiazole-6-sulfonamido)-1-phenylbutan-2-yl)carbamate-d18]	increase in stability over darunavir (human liver microsomes, average of two runs, versus darunavir): 36%; increase in stability over 302, its non-deuterated counterpart (human liver microsomes, versus 302, in words): an even greater increase in stability
						8.3 min	7.9 min	8.1 min	[2H]C([2H])([2H])C([2H])(C([2H])([2H])[2H])C([2H])([2H])N(C[C@@H](O)[C@H](Cc1ccccc1)NC(=O)O[C@]1([2H])[C@H]2[C@H](OC([2H])([2H])C2([2H])[2H])OC1([2H])[2H])S(=O)(=O)c1ccc2ncsc2c1 [Compound 237, (3R,3aS,6aR)-hexahydrofuro[2,3-b]furan-3-yl-((2S,3R)-3-hydroxy-4-(N-isobutylbenzo[d]thiazole-6-sulfonamido)-1-phenylbutan-2-yl)carbamate-d16]	
